Measured values: patent US9771430B2, “Method of treating a metabolic disorder induced by obesity in a subject in need thereof by administering MK2/3 inhibitors” (THE TRUSTEES OF COLUMBIA UNIVERSITY IN THE CITY OF NEW YORK, priority 2011, dated 2017)

What was measured:
cytosolic free calcium = test: Calcium mobilization in primary hepatocytes (Fura-2 imaging); type: cell-based, mouse
Description: Mouse primary hepatocytes were plated on glass coverslips and loaded with 5 μM Fura-2 acetoxymethyl ester (Molecular Probes) in the presence of 0.025% (w/v) pluronic F127 (Sigma-Aldrich) in Media 199 (Mediatech) for 30 minutes. […] The ratio of fluorescence intensity at the two excitation wavelengths was calculated after subtracting background fluorescence. [Ca2+]I (cytosolic free calcium concentration) was calculated using a Fura-2 calcium imaging calibration kit (Invitrogen). Images were collected and analyzed using the MetaFluor software package (Universal Imaging Corp.). Graphs represent average responses from groups of 30-40 individual cells from representative single experiments. Bar graphs represent average responses (fold over average baseline) from 150-200 cells per condition. All experiments were repeated at least three times with similar results.

CaMKII = test: Hepatic CaMKII phosphorylation in mice; type: in vivo, mouse
Description: FIGS. 1A-J. Glucagon and fasting activates hepatic CaMKII. FIG. 1A. CaMKII enzyme activity was assayed in triplicate wells of primary mouse HCs stimulated with 100 nM glucagon (Gluc) or vehicle control (Veh) for the indicated times (*P<0.05 and **P<0.01 vs. Veh; mean±S.E.M.). FIGS. 1B-1J. Extracts of HCs or liver were probed for phospho-CaMKII, total CaMKII, and β-actin by immunoblot assay. FIG. 1B. HCs were incubated with […] glucagon for the indicated times; FIG. 1C. Glucagon was added to HCs that were pre-treated for 1 h with vehicle control (Veh) or 5 μM BAPTA-AM; FIG. 1D. Glucagon was added to HCs that were pre-treated with 0.5 μM xestospongin (XesC) or to HCs from Ip3r1fl/fl mice transduced with adeno-LacZ control or adeno-Cre (bar graph=Ip3r1 mRNA levels); FIG. 1E. Glucagon was added to HCs that were pre-treated for 1 h with vehicle control (Veh) or 10 μM H89. FIG. 1F. […] FIGS. 1G-1J. In vivo experiments. In FIG. 1G, mice were treated for 30 min with 200 μg kg−1 body weight of glucagon i.p., and in FIG. 1H, mice were pre-treated with 10 pmol g−1 xestospongin C or vehicle control i.p. 4 days prior to glucagon treatment. In FIGS. 1I-1J, mice were fed ad libitum or fasted for 12 h, or fasted for 12 h and then re-fed for 4 h.
FIGS. 28A-G. (Related to FIGS. 1 and 22). FIG. 28A Mice were injected i.p. with the indicated doses of glucagon and sacrificed 15 min later. The livers were probed for phospho- and total CaMKII and β-actin by immunoblot. FIG. 28B Mice (n=5/group) were fed ad libitum or fasted for 12 h and then plasma was assayed for glucagon (*P=0.007; mean±S.E.M.). FIG. 28C Mice were injected i.p. with 10 pmol g^−1 xestospongin C (XesC) or vehicle control each day for 4 days and then fed ad libitum or fasted for 12 h. Liver phospho-CaMKII, total CaMKII, and β-actin levels were assayed by immunoblot. FIG. 28D Immunoblot of CaMKII in HCs transduced with adeno-LacZ vs. CA-CaMKII. FIG. 28E HCs were transduced with adeno-LacZ or KD-CaMKII. Cells were serum-depleted overnight and then assayed for CaMKII activity (*P<0.005; mean±S.E.M.). […]
(§1) Camk2g−/− mice were generated as described previously (Backs et al., 2010) and crossed onto the C57BL6/J background. […] Fasting blood glucose was measured in mice that were fasted for 12-14 h, with free access to water, using a glucose meter (One Touch Ultra, Lifescan). […] Blood glucose levels were measured over the following 2 h. […]
as §1, with “Camk2g^−/−” for “Camk2g−/−”, “background. ob/ob mice were obtained from Jackson Labs.” for “background.”

Molecule	cytosolic calcium mobilization in response to glucagon (and forskolin) (cytosolic free calcium; co-/pre-treatment with inhibitor)	glucagon-induced CaMKII phosphorylation in liver (CaMKII; i.p. xestospongin C 10 pmol g−1 for 4 days, then glucagon)	fasting-induced phosphorylation of CaMKII in liver (CaMKII; xestospongin C treatment of the mice, 12 h fast)	cellular free calcium (cytosolic free calcium; exposure of primary hepatocytes to glucagon)	hepatic CaMKII phosphorylation (CaMKII; bolus of i.p. glucagon)	glucagon dose capable of phosphorylating CaMKII in the liver (as low as) (CaMKII; i.p.) [µg/kg]
C1CCC[C@H]2CCCN3CC[C@@H](CCCCCC[C@@H]4CCCN5CC[C@@H](CC1)O[C@@H]45)O[C@@H]23 [Xestospongin C]	disrupted	markedly reduced	suppressed			
glucagon: hormone used to stimulate hepatocytes and mice				rapid increase	induced	1
